Measurements from ChEMBL document CHEMBL1201862, “PubChem BioAssay data set” (2004).
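Results reflect a 48-hour exposure of cells in 96-well plates to compound at five concentrations. GI50: concentration for 50% inhibition of growth.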 Active and inactive are the calls of the source. Cut-off read from the data, not from the text of the source: active = GI50 up to about 1.1 µM and inactive = higher.

Assays:
Assay in all cases: NCI tumour cell line growth inhibition, 48 h
BT-549 = tested on: BT-549
UACC-257 = tested on: UACC-257
MCF7 = tested on: MCF7
EKVX = tested on: EKVX
KM12 = tested on: KM12
A549 = tested on: A549
SR = tested on: SR
HCT-15 = tested on: HCT-15
SF-539 = tested on: SF-539
NCI-H460 = tested on: NCI-H460
CCRF-CEM = tested on: CCRF-CEM
786-0 = tested on: 786-0
HT-29 = tested on: HT-29
RPMI-8226 = tested on: RPMI-8226
OVCAR-3 = tested on: OVCAR-3
SW-620 = tested on: SW-620
TK-10 = tested on: TK-10
DU-145 = tested on: DU-145

## COc1cc(C2c3cc4c(cc3OC(N3CCOCC3)C2C)OCO4)cc(OC)c1OC(C)=O (stereo not drawn)
BT-549
  GI50: 7.89 µM (inactive)
UACC-257
  GI50: 53.8 µM (inactive)
MCF7
  GI50: 8.59 µM (inactive)
EKVX
  GI50: 47.5 µM (inactive)
KM12
  GI50: 5.35 µM (inactive)
A549
  GI50: 15 µM (inactive)
SR
  GI50: 6.25 µM (inactive)
HCT-15
  GI50: 15 µM
SF-539
  GI50: 13.3 µM (inactive)
NCI-H460
  GI50: 7.69 µM (inactive)
CCRF-CEM
  GI50: 11.7 µM (inactive)
786-0
  GI50: 15.8 µM (inactive)
HT-29
  GI50: 11.5 µM (inactive)
RPMI-8226
  GI50: 26.3 µM (inactive)
OVCAR-3
  GI50: 8.07 µM (inactive)
SW-620
  GI50: 6.12 µM (inactive)
TK-10
  GI50: 30.7 µM (inactive)
DU-145
  GI50: 26.5 µM (inactive)

## Nc1nc(N)c2ncn(-c3ccc(Br)cc3)c2n1
BT-549
  GI50: 97.7 µM (inactive)
UACC-257
  GI50: > 100 µM (inactive)
MCF7
  GI50: 20.3 µM (inactive)
EKVX
  GI50: 5.45 µM (inactive)
KM12
  GI50: 14.4 µM (inactive)
A549
  GI50: 33.1 µM (inactive)
SR
  GI50: 0.119 µM (active)
HCT-15
  GI50: 19.9 µM
SF-539
  GI50: 14.7 µM (inactive)
NCI-H460
  GI50: 34.9 µM (inactive)
CCRF-CEM
  GI50: 8.43 µM (inactive)
786-0
  GI50: 28.1 µM (inactive)
HT-29
  GI50: 15.1 µM (inactive)
RPMI-8226
  GI50: 11.4 µM (inactive)
OVCAR-3
  GI50: 16.2 µM (inactive)
SW-620
  GI50: 45.9 µM (inactive)
TK-10
  GI50: 35.1 µM (inactive)
DU-145
  GI50: 24.5 µM (inactive)

## Oc1ccc2ccccc2c1C(c1ccc(Cl)cc1)c1c(O)ccc2ccccc12
BT-549
  GI50: 4.65 µM (inactive)
UACC-257
  GI50: 4.13 µM (inactive)
MCF7
  GI50: 3.57 µM (inactive)
EKVX
  GI50: 2.59 µM (inactive)
KM12
  GI50: 2.67 µM (inactive)
A549
  GI50: 2.95 µM (inactive)
SR
  GI50: 2.82 µM (inactive)
HCT-15
  GI50: 3.49 µM
SF-539
  GI50: 5.05 µM (inactive)
NCI-H460
  GI50: 3.16 µM (inactive)
CCRF-CEM
  GI50: 2.63 µM (inactive)
786-0
  GI50: 3.66 µM (inactive)
HT-29
  GI50: 2.98 µM (inactive)
RPMI-8226
  GI50: 2.01 µM (inactive)
OVCAR-3
  GI50: 2.63 µM (inactive)
SW-620
  GI50: 3.18 µM (inactive)
TK-10
  GI50: 3.53 µM (inactive)
DU-145
  GI50: 3.37 µM (inactive)

## COC(=O)/C=C1/OC(c2ccc(OC)cc2)=C(Cl)C1=O
BT-549
  GI50: 13.3 µM (inactive)
UACC-257
  GI50: 21.6 µM (inactive)
MCF7
  GI50: 8.32 µM (inactive)
EKVX
  GI50: 19.1 µM (inactive)
KM12
  GI50: 18.1 µM (inactive)
A549
  GI50: 23.7 µM (inactive)
SR
  GI50: 1.61 µM (inactive)
HCT-15
  GI50: 17.5 µM
SF-539
  GI50: 19.1 µM (inactive)
NCI-H460
  GI50: 18.4 µM (inactive)
CCRF-CEM
  GI50: 4.78 µM (inactive)
786-0
  GI50: 12.1 µM (inactive)
HT-29
  GI50: 15.4 µM (inactive)
RPMI-8226
  GI50: 3.95 µM (inactive)
OVCAR-3
  GI50: 13.3 µM (inactive)
SW-620
  GI50: 12.4 µM (inactive)
TK-10
  GI50: 24.3 µM (inactive)
DU-145
  GI50: 18.2 µM (inactive)

## OCCCNCC(O)c1ccc(OCc2ccccc2)c(OCc2ccccc2)c1 (stereo not drawn)
BT-549
  GI50: 15.8 µM (inactive)
UACC-257
  GI50: 11.2 µM (inactive)
MCF7
  GI50: 8.04 µM (inactive)
EKVX
  GI50: 15 µM (inactive)
KM12
  GI50: 12.5 µM (inactive)
A549
  GI50: 11.6 µM (inactive)
SR
  GI50: 10.9 µM (inactive)
HCT-15
  GI50: 13.1 µM
SF-539
  GI50: 10.9 µM (inactive)
NCI-H460
  GI50: 7.52 µM (inactive)
CCRF-CEM
  GI50: 8.15 µM (inactive)
786-0
  GI50: 7.48 µM (inactive)
HT-29
  GI50: 8.24 µM (inactive)
RPMI-8226
  GI50: 8.47 µM (inactive)
OVCAR-3
  GI50: 15.9 µM (inactive)
SW-620
  GI50: 8.34 µM (inactive)
TK-10
  GI50: 7.91 µM (inactive)
DU-145
  GI50: 16.9 µM (inactive)

## CCN(C(=O)N[C@@H](Cc1ccccc1)C(=O)N[C@@H](CC(C)C)C(=O)OC)c1ccccc1
BT-549
  GI50: 57.1 µM (inactive)
UACC-257
  GI50: 23.2 µM (inactive)
MCF7
  GI50: 24 µM (inactive)
EKVX
  GI50: 18.7 µM (inactive)
KM12
  GI50: 29.4 µM (inactive)
A549
  GI50: 30.5 µM (inactive)
SR
  GI50: 6.18 µM (inactive)
HCT-15
  GI50: 15.8 µM
SF-539
  GI50: 19.5 µM (inactive)
NCI-H460
  GI50: 12.4 µM (inactive)
CCRF-CEM
  GI50: 19.3 µM (inactive)
786-0
  GI50: 19.8 µM (inactive)
HT-29
  GI50: 14.3 µM (inactive)
RPMI-8226
  GI50: 20.1 µM (inactive)
OVCAR-3
  GI50: 26.5 µM (inactive)
SW-620
  GI50: 25.4 µM (inactive)
TK-10
  GI50: 33 µM (inactive)
DU-145
  GI50: 17.3 µM (inactive)

## COC(=O)C1CCN(C(=O)OC(C)(C)C)CC1
BT-549
  GI50: 0.993 µM (active)
UACC-257
  GI50: > 100 µM (inactive)
MCF7
  GI50: > 100 µM (inactive)
EKVX
  GI50: > 100 µM (inactive)
KM12
  GI50: > 100 µM (inactive)
A549
  GI50: > 100 µM (inactive)
SR
  GI50: > 100 µM (inactive)
HCT-15
  GI50: > 100 µM
SF-539
  GI50: > 100 µM (inactive)
NCI-H460
  GI50: > 100 µM (inactive)
CCRF-CEM
  GI50: > 100 µM (inactive)
786-0
  GI50: > 100 µM (inactive)
HT-29
  GI50: > 100 µM (inactive)
RPMI-8226
  GI50: > 100 µM (inactive)
OVCAR-3
  GI50: > 100 µM (inactive)
SW-620
  GI50: > 100 µM (inactive)
TK-10
  GI50: > 100 µM (inactive)
DU-145
  GI50: > 100 µM (inactive)

## CC(C)=CCC/C(C)=C/CC/C(C)=C/CCN(C)CCO
BT-549
  GI50: 10.8 µM (inactive)
UACC-257
  GI50: 8.24 µM (inactive)
MCF7
  GI50: 2.45 µM (inactive)
EKVX
  GI50: 16.8 µM (inactive)
KM12
  GI50: 2.75 µM (inactive)
A549
  GI50: 9.77 µM (inactive)
SR
  GI50: 6.35 µM (inactive)
HCT-15
  GI50: 3.95 µM
SF-539
  GI50: 4.25 µM (inactive)
NCI-H460
  GI50: 4.78 µM (inactive)
CCRF-CEM
  GI50: 2.39 µM (inactive)
786-0
  GI50: 2.11 µM (inactive)
HT-29
  GI50: 11.2 µM (inactive)
RPMI-8226
  GI50: 2.96 µM (inactive)
OVCAR-3
  GI50: 13.8 µM (inactive)
SW-620
  GI50: 3.58 µM (inactive)
TK-10
  GI50: 6 µM (inactive)
DU-145
  GI50: 12.7 µM (inactive)

## Cc1cn(CCCCCCOC(=O)NC(CCCNC(N)=O)C(=O)O)c(=O)[nH]c1=O (stereo not drawn)
BT-549
  GI50: > 100 µM (inactive)
UACC-257
  GI50: > 100 µM (inactive)
MCF7
  GI50: > 100 µM (inactive)
EKVX
  GI50: > 100 µM (inactive)
KM12
  GI50: > 100 µM (inactive)
A549
  GI50: > 100 µM (inactive)
SR
  GI50: > 100 µM (inactive)
HCT-15
  GI50: > 100 µM
SF-539
  GI50: > 100 µM (inactive)
NCI-H460
  GI50: > 100 µM (inactive)
CCRF-CEM
  GI50: > 100 µM (inactive)
786-0
  GI50: > 100 µM (inactive)
HT-29
  GI50: > 100 µM (inactive)
RPMI-8226
  GI50: > 100 µM (inactive)
OVCAR-3
  GI50: > 100 µM (inactive)
SW-620
  GI50: > 100 µM (inactive)
TK-10
  GI50: > 100 µM (inactive)
DU-145
  GI50: > 100 µM (inactive)

## OCCO[P+]1(OCCO)n2c3ccc2C(c2ccccc2)=C2C=CC(=N2)C(c2ccccc2)=c2ccc(n21)=C(c1ccccc1)C1=NC(=C3c2ccccc2)C=C1
BT-549
  GI50: 0.0118 µM (active)
UACC-257
  GI50: 0.0207 µM (active)
MCF7
  GI50: 0.0267 µM (active)
EKVX
  GI50: 0.104 µM (active)
KM12
  GI50: 0.0247 µM (active)
A549
  GI50: 0.0389 µM (active)
SR
  GI50: < 0.0106 µM (active)
HCT-15
  GI50: 1.16 µM
SF-539
  GI50: 0.0335 µM (active)
NCI-H460
  GI50: 0.0378 µM (active)
CCRF-CEM
  GI50: 0.0158 µM (active)
786-0
  GI50: 0.0764 µM (active)
HT-29
  GI50: 0.0281 µM (active)
RPMI-8226
  GI50: < 0.01 µM (active)
OVCAR-3
  GI50: 0.0218 µM (active)
SW-620
  GI50: 0.129 µM (active)
TK-10
  GI50: 0.119 µM (active)
DU-145
  GI50: 0.0316 µM (active)

## Cc1cc(-c2nc3cc(F)ccc3s2)ccc1N
BT-549
  GI50: > 48 µM (inactive)
UACC-257
  GI50: 29.9 µM (inactive)
MCF7
  GI50: < 0.01 µM (active)
EKVX
  GI50: 11.2 µM (inactive)
KM12
  GI50: 42.8 µM (inactive)
A549
  GI50: 6.17 µM (inactive)
SR
  GI50: < 0.0106 µM (active)
HCT-15
  GI50: 7.96 µM
SF-539
  GI50: 20.4 µM (inactive)
NCI-H460
  GI50: < 0.017 µM (active)
CCRF-CEM
  GI50: 1.95 µM (inactive)
786-0
  GI50: 22.2 µM (inactive)
HT-29
  GI50: 29 µM (inactive)
RPMI-8226
  GI50: > 31.3 µM (inactive)
OVCAR-3
  GI50: 28.7 µM (inactive)
SW-620
  GI50: > 100 µM (inactive)
TK-10
  GI50: < 0.01 µM (active)
DU-145
  GI50: 56 µM (inactive)
